Measurements published in patent publication US20260232767A1, “INTERLEUKIN-23 RECEPTOR ANTAGONIST PEPTIDES FOR USE IN THE TREATMENT OF PSORIASIS” (Janssen Pharmaceutica NV, priority 2023, published 2026).

Tested on: subjects with moderate-to-severe plaque psoriasis
Experiment: Safety, adverse events, Example 2 through Week 56
Assay type: in vivo, human
Description: The LTE safety analysis was based on randomized participants in Example who entered the present long-term extension study and received at least one dose of study intervention (including a partial dose) during the study period.

[1] = Combined, Week 16 through Week 56

CC(=O)NCCCC[C@@H]1NC(=O)[C@H](Cc2c[nH]c3c(C)cccc23)NC(=O)[C@H]([C@@H](C)O)NC(=O)[C@H](CC(N)=O)NC(=O)[C@@H](NC(C)=O)C(C)(C)SSC(C)(C)[C@@H](C(=O)N[C@@H](Cc2ccc(OCCN)cc2)C(=O)N[C@@H](Cc2ccc3ccccc3c2)C(=O)NC2(C(=O)N[C@@H](CCC(=O)O)C(=O)N[C@@H](CC(N)=O)C(=O)N[C@@H](Cc3cccnc3)C(=O)N(C)CC(N)=O)CCOCC2)NC1=O [IL-23 receptor antagonist peptide, Ac-[Pen]*-N-T-[W(7-Me)]-[Lys(Ac)]-[Pen]*-Phe[4-(2-aminoethoxy)]-[2-Nal]-[THP]-E-N-[3-Pal]-Sarc-NH2 (*[Pen]-[Pen]* formdisulfidebond)]
(2.0%): Blood and lymphatic system disorders: % of subjects (Combined, through Week 56)
(0.4%): Subjects with treatment-emergent AE: Cholelithiasis (%) [1] | Subjects with treatment-emergent AE: Endocrine disorders (%) [1] | Subjects with treatment-emergent AE: Eyelid skin dryness (%) [1] | Subjects with treatment-emergent AE: Goiter (%) [1] | Subjects with treatment-emergent AE: Hypertransaminasemia (%) [1] | Subjects with treatment-emergent AE: Insomnia (%) [1] | Subjects with treatment-emergent AE: Ocular cyst (%) [1] | Subjects with treatment-emergent AE: Psychiatric disorders (%) [1] | Subjects with treatment-emergent AE: Retinal vein occlusion (%) [1] | Subjects with treatment-emergent AE: Ventricular dysfunction (%) [1] | Actinic keratosis: % of subjects (Combined, through Week 56) | Alopecia: % of subjects (Combined, through Week 56) | Asthenia: % of subjects (Combined, through Week 56) | Asthma: % of subjects (Combined, through Week 56) | Atrioventricular block first degree: % of subjects (Combined, through Week 56) | Basal cell carcinoma: % of subjects (Combined, through Week 56) | Bronchitis chronic: % of subjects (Combined, through Week 56) | Bundle branch block right: % of subjects (Combined, through Week 56) | Cholelithiasis: % of subjects (Combined, through Week 56) | Chronic obstructive pulmonary disease: % of subjects (Combined, through Week 56)
2: Skin and subcutaneous tissue disorders: number of subjects (100 mg QD, through Week 56) | Number of subjects with treatment-emergent AE: Ear and labyrinth disorders [1] | Number of subjects with treatment-emergent AE: Hepatobiliary disorders [1] | Number of subjects with treatment-emergent AE: Immune system disorders [1] | Number of subjects with treatment-emergent AE: Seasonal allergy [1] | Number of subjects with treatment-emergent AE: Vertigo [1] | Acrochordon: number of subjects (Combined, through Week 56) | Chills: number of subjects (Combined, through Week 56)
(1.3%): Subjects with treatment-emergent AE: Eye disorders (%) [1]
3: Number of subjects with treatment-emergent AE: Eye disorders [1]
(0.8%): Acrochordon: % of subjects (Combined, through Week 56) | Chills: % of subjects (Combined, through Week 56)
(0.9%): Subjects with treatment-emergent AE: Ear and labyrinth disorders (%) [1] | Subjects with treatment-emergent AE: Hepatobiliary disorders (%) [1] | Subjects with treatment-emergent AE: Immune system disorders (%) [1] | Subjects with treatment-emergent AE: Seasonal allergy (%) [1] | Subjects with treatment-emergent AE: Vertigo (%) [1]
1: Skin laceration: number of subjects (100 mg QD, through Week 56) | Suicide attempt: number of subjects (100 mg QD, through Week 56) | Vascular disorders: number of subjects (100 mg QD, through Week 56) | Vertigo: number of subjects (100 mg QD, through Week 56) | Number of subjects with treatment-emergent AE: Cholelithiasis [1] | Number of subjects with treatment-emergent AE: Endocrine disorders [1] | Number of subjects with treatment-emergent AE: Eyelid skin dryness [1] | Number of subjects with treatment-emergent AE: Goiter [1] | Number of subjects with treatment-emergent AE: Hypertransaminasemia [1] | Number of subjects with treatment-emergent AE: Insomnia [1] | Number of subjects with treatment-emergent AE: Ocular cyst [1] | Number of subjects with treatment-emergent AE: Psychiatric disorders [1] | Number of subjects with treatment-emergent AE: Retinal vein occlusion [1] | Actinic keratosis: number of subjects (Combined, through Week 56) | Alopecia: number of subjects (Combined, through Week 56) | Asthenia: number of subjects (Combined, through Week 56) | Asthma: number of subjects (Combined, through Week 56) | Atrioventricular block first degree: number of subjects (Combined, through Week 56) | Basal cell carcinoma: number of subjects (Combined, through Week 56) | Bronchitis chronic: number of subjects (Combined, through Week 56) | Bundle branch block right: number of subjects (Combined, through Week 56) | Cholelithiasis: number of subjects (Combined, through Week 56) | Chronic obstructive pulmonary disease: number of subjects (Combined, through Week 56)
(1.6%): Cardiac disorders: % of subjects (Combined, through Week 56)
(2.3%): Skin laceration: % of subjects (100 mg QD, through Week 56) | Suicide attempt: % of subjects (100 mg QD, through Week 56) | Vascular disorders: % of subjects (100 mg QD, through Week 56) | Vertigo: % of subjects (100 mg QD, through Week 56)
4: Respiratory, thoracic and mediastinal disorders: number of subjects (100 mg QD, through Week 56) | Cardiac disorders: number of subjects (Combined, through Week 56)
0: Retinal vein occlusion: number of subjects (100 mg QD, through Week 56) | Rhinorrhoea: number of subjects (100 mg QD, through Week 56) | Seasonal allergy: number of subjects (100 mg QD, through Week 56) | Skin papilloma: number of subjects (100 mg QD, through Week 56) | Social circumstances: number of subjects (100 mg QD, through Week 56) | Steatohepatitis: number of subjects (100 mg QD, through Week 56) | Subjects with AE leading to discontinuation: Abdominal discomfort (100 mg QD, through Week 56) | Subjects with AE leading to discontinuation: Abdominal pain (100 mg QD, through Week 56) | Subjects with AE leading to discontinuation: Alanine aminotransferase increased (100 mg QD, through Week 56) | Subjects with AE leading to discontinuation: Aspartate aminotransferase increased (100 mg QD, through Week 56) | Subjects with AE leading to discontinuation: Asthenia (100 mg QD, through Week 56) | Subjects with AE leading to discontinuation: Gamma-glutamyltransferase increased (100 mg QD, through Week 56) | Subjects with AE leading to discontinuation: Insomnia (100 mg QD, through Week 56) | Subjects with AE leading to discontinuation: Investigations (100 mg QD, through Week 56) | Subjects with AE leading to discontinuation: Nausea (100 mg QD, through Week 56) | Subjects with AE leading to discontinuation: Proctalgia (100 mg QD, through Week 56) | Subjects with AE leading to discontinuation: Psoriasis (100 mg QD, through Week 56) | Subjects with AE leading to discontinuation: Skin and subcutaneous tissue disorders (100 mg QD, through Week 56) | Subjects with AE leading to discontinuation: Transaminases increased (100 mg QD, through Week 56) | Subjects with AE leading to discontinuation: Weight increased (100 mg QD, through Week 56) | Subjects with COVID-19 associated AE: SARS-CoV-2 test positive (100 mg QD, through Week 56) | Subjects with treatment-emergent AE: Alanine aminotransferase increased (100 mg QD, through Week 56) | Subjects with treatment-emergent AE: Aspartate aminotransferase increased (100 mg QD, through Week 56) | Subjects with treatment-emergent AE: Bronchitis (100 mg QD, through Week 56) | Subjects with treatment-emergent AE: Urinary tract infection (100 mg QD, through Week 56) | Subjects with treatment-emergent serious AE: Cardiac disorders (100 mg QD, through Week 56) | Subjects with treatment-emergent serious AE: Cerebrovascular accident (100 mg QD, through Week 56) | Subjects with treatment-emergent serious AE: Coronary artery disease (100 mg QD, through Week 56) | Subjects with treatment-emergent serious AE: Foot deformity (100 mg QD, through Week 56) | Subjects with treatment-emergent serious AE: General disorders and administration site conditions (100 mg QD, through Week 56) | Subjects with treatment-emergent serious AE: Infected cyst (100 mg QD, through Week 56) | Subjects with treatment-emergent serious AE: Injury, poisoning and procedural complications (100 mg QD, through Week 56) | Subjects with treatment-emergent serious AE: Ligament injury (100 mg QD, through Week 56) | Subjects with treatment-emergent serious AE: Neoplasms benign, malignant and unspecified (incl cysts and polyps) (100 mg QD, through Week 56) | Subjects with treatment-emergent serious AE: Nervous system disorders (100 mg QD, through Week 56) | Subjects with treatment-emergent serious AE: Non-cardiac chest pain (100 mg QD, through Week 56) | Subjects with treatment-emergent serious AE: Respiratory, thoracic and mediastinal disorders (100 mg QD, through Week 56) | Subjects with treatment-emergent serious AE: Tonsillar hypertrophy (100 mg QD, through Week 56) | Subjects with treatment-emergent serious AE: Uterine leiomyoma (100 mg QD, through Week 56) | Subjects with treatment-emergent serious AE: Ventricular dysfunction (100 mg QD, through Week 56) | Sunburn: number of subjects (100 mg QD, through Week 56) | Thrombocytopenia: number of subjects (100 mg QD, through Week 56) | Thrombocytosis: number of subjects (100 mg QD, through Week 56) | Tonsillar hypertrophy: number of subjects (100 mg QD, through Week 56) | Tooth fracture: number of subjects (100 mg QD, through Week 56) | Type 2 diabetes mellitus: number of subjects (100 mg QD, through Week 56) | Urinary tract disorder: number of subjects (100 mg QD, through Week 56) | Uterine leiomyoma: number of subjects (100 mg QD, through Week 56) | Ventricular dysfunction: number of subjects (100 mg QD, through Week 56) | Vitamin D deficiency: number of subjects (100 mg QD, through Week 56)
5: Subjects with treatment-emergent AE: Headache (100 mg QD, through Week 56) | Blood and lymphatic system disorders: number of subjects (Combined, through Week 56)
(4.7%): Skin and subcutaneous tissue disorders: % of subjects (100 mg QD, through Week 56)
